The values that follow come from patent publication US11760784B2, “Compositions comprising PEDF-derived short peptides and uses thereof” (BRIM Biotechnology, Inc., priority 2016, dated 2023).

The test system of one assay is IL-1β mRNA. The assay can be described thus: Ocular IL-1β mRNA by quantitative real-time PCR in CEC dry eye mice. It is filed as in vivo, C57BL6 mice. To be noted: CEC 14 days, then topical PDSP for 5 days. The protocol: (§1) Dry eye is associated with abnormalities in the pre-corneal tear film and subsequent inflammatory changes in the entire ocular surface including the adnexa, conjunctiva and cornea. (see, Hessen et al., “Dry eye: An Inflammatory Ocular Disease,” J. Ophthalmic Vis. Res., 2014, 9(2): 240-250). Therefore, the effects of PDSPs in corneal inflammatory responses were next examined. Briefly, C57BL6 mice were housed in CEC for 14 days (Day 0) and then treatment with PDSP or vehicle were performed for additional 5 days (Day 5). Then, mRNA levels for inflammatory factors were evaluated by quantitative real-time PCR.
(§2) The total RNA was extracted from cells using TRIzol (Invitrogen) and treated with RNase free DNase I (Qiagen, Santa Clarita, CA) to remove genomic DNA and then purified with an RNA purification kit (Dynabeads; Invitrogen). […] Quantitative real-time PCR was performed in a GeneAmp 7700 sequence detection system (Applied Biosystems, Foster City, CA). […] All determinations were measured in triplicate. The cycle threshold (Ct) values corresponded to the PCR cycle number at which fluorescence emission in real time reaches a threshold above the base-line emission were analyzed using GeneAmp 7700 SDS software. The Ct value of the PCR product of interest and a control mRNA (GAPDH) were then used to calculate relative quantities of mRNA between samples.
On the technique in general: Real-time PCR tracks product formation cycle by cycle.

Assay [1] relates to intracellular ROS in rabbit corneal epithelial cells. The assay can be described thus: Intracellular ROS (H2DCFDA probe) in NaCl-treated corneal epithelial cells. It is filed as cell-based. The protocol: We therefore examined the effects of PDSP on the intracellular ROS and GSH levels in NaCl-treated (HOP) rabbit corneal epithelial cells. Briefly, rabbit corneal epithelial cells were pretreated with 10 μM PDSP or a negative control peptide (ConP) for 20 hours, followed by treatment with NaCl to induce hyperosmotic stress. After NaCl treatment for another 24 hours, cells were assessed for ROS using a 2′,7′-dichlorodihydrofluorescein diacetate (H2DCFDA) probe, which is an ROS indicator dye. […]
Intracellular ROS generation was assayed using 2′,7′-dichlorodihydrofluorescein diacetate (H2DCFDA; Molecular Probes, Eugene, Oreg.) which, when oxidized by ROS, releases the green fluorescent compound 2′,7′-dichlorofluorescein (DCF). […] Fluorescence (excitation, 488 nm; emission, 520 nm) was measured with a Spectra MAX GEMINI Reader (Molecular Devices, Sunnyvale, Calif., USA). The background fluorescence from control wells without the addition of H2DCFDA was subtracted from the experimental readings.
To investigate the effect of hyperosmotic stress on the intracellular ROS formation, rabbit corneal epithelial cells were cultured in a hyperosmotic medium (463 mOsM) by adding 90 mM NaCl for 24 hours. The intracellular ROS levels were detected by H2DCFDA probe and measured the formation of DCF-fluorescence by spectrofluorometer.

For the next assay, the system named is TNF-α mRNA. The assay can be described thus: Ocular TNF-α mRNA by quantitative real-time PCR in CEC dry eye mice. It is filed as in vivo, C57BL6 mice. To be noted: CEC 14 days, then topical PDSP for 5 days. The protocol:
as §1, §2

The test system of assay [2] is GSH in rabbit corneal epithelial cells. Briefly: Glutathione (GSH) level (OPA probe) in NaCl-treated corneal epithelial cells. It is filed as cell-based. The conditions noted are these: 10 μM PDSP, isotonic medium, compared to untreated. As for the experimental part: We therefore examined the effects of PDSP on the intracellular ROS and GSH levels in NaCl-treated (HOP) rabbit corneal epithelial cells. Briefly, rabbit corneal epithelial cells were pretreated with 10 μM PDSP or a negative control peptide (ConP) for 20 hours, followed by treatment with NaCl to induce hyperosmotic stress. After NaCl treatment for another 24 hours, cells were assessed for ROS using a 2′,7′-dichlorodihydrofluorescein diacetate (H2DCFDA) probe, which is an ROS indicator dye. H2DCFDA can diffuse into cells, where its acetate ester linkages are cleaved by intracellular esterases and be oxidized by ROS, which converts the nonfluorescent dichlorodihydrofluorescein diacetate (H2DCFDA) to highly fluorescent […] (DCF).
Limbal stem cells were isolated from 6-month-old New Zealand white rabbits and continuously cultivated for 14 days by DMEM/F-12 basal medium based cell-suspension culture to achieve corneal-liked epithelial cell differentiation as previously described (Ho et al., 2013). […]
The GSH levels were quantified using a Glutathione Assay Kit (BioVision Research Products, Mountain View, Calif.) according to the manufacturer's recommendations. […] The fluorescence was read at 340 nm for excitation and 420 nm for emission on a SPECTRAmax GEMINI XS fluorescence microplate spectrophotometer (Molecular Devices, Sunnyvale, Calif.).

With “PDSP: 29mer, residues 93-121 of human PEDF: SLGAEQRTESIIHRALYYDLISSPDIHGT (SEQ ID NO:4) (listed as Homo sapiens)”, in the assay with IL-1β mRNA, the “repression of ocular IL-1β mRNA expression compared to vehicle-treated group” value is reported as 2.4 fold. In addition, the “DCF fluorescence without HOP (peptide alone)” value in assay [1] (10 μM PDSP, isotonic medium, compared to untreated) is recorded as “did not increase DCF fluorescence”. Also, in assay [1] (10 μM peptide pretreatment 20 hours, then hyperosmotic medium (463 mOsM, 90 mM NaCl) 24 hours), the “suppression of DCF-fluorescence level compared to cells treated with NaCl alone” value is 1.3 fold. In addition, in the assay with TNF-α mRNA, the “repression of ocular TNF-α mRNA expression compared to vehicle-treated group” value is reported as 1.9 fold. Moreover, the “GSH level without HOP stress (peptide alone)” value in assay [2] is reported as “slight increase”.
